Data published in PubChem BioAssay (NCI).
Several values for one entry are separate records, joined by “and”; a condition that tells them apart may be missing. Equal entries are not always repeated.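 Compound exposure: 48 hours, 5 concentrations, 96-well plates. GI50 = concentration required for 50% inhibition of growth. Definition used: TGI = concentration required for complete inhibition of growth.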

Columns and labels:
Test in all cases: inhibition of tumour cell growth, NCI panel, 48 h
[1] = system: PC-3 prostate
[2] = system: MDA-N
[3] = system: DLD-1 colon
[4] = system: DMS 114 small cell lung
[5] = system: DMS 273 small cell lung
[6] = system: HOP-18 NSCLC
[7] = system: M19-MEL melanoma
[8] = system: RXF-631 renal
[9] = system: XF 498 CNS

| Compound | GI50 [1] | TGI [1] [µM] | TGI [3] [µM] | TGI [4] [µM] | TGI [7] [µM] | further results |
| --- | --- | --- | --- | --- | --- | --- |
| COc1ccc2c(c1)c(-c1nc(-c3c[nH]c4ccncc34)cs1)cn2C | 1.6 µM | 3.06 | – | – | – | – |
| O=C(/C=C\c1ccc([N+](=O)[O-])cc1)c1ccccc(=O)c1O | – | 9.84 | – | – | – | TGI [2]: > 30.5 µM |
| CNC(=O)c1c(NC(=O)c2ccc(C(C)(C)C)cc2)sc2c1CCC(=O)C2 | 0.0797 µM | 1.35 | – | – | – | – |
| COCN1COCN=C1NC#N | – | – | > 100 | > 100 | > 100 | TGI [5]: > 100 µM; TGI [6]: > 100 µM; TGI [8]: > 100 µM; TGI [9]: > 100 µM |
| Cc1ccc(/C=N/Nc2nc(Nc3ccccc3)nc(-n3nc(C)cc3C)n2)cc1 | 2.67 µM | 23.6 | – | – | – | – |
| CN(C)c1ccc2oc(=O)c3ccccc3c2c1 | – | > 100 | – | – | – | TGI [2]: > 100 µM |
| COC(=O)c1ccc(CN2C(=O)C(Cl)=C(Nc3cccc(Cl)c3C)C2=O)cc1 | 37.6 µM | > 100 | – | – | – | – |
| O=C1N2Cc3c4ccc5c3CN3C(=O)N6Cc7c(ccc(c7CN1C6(c1ccccc1)C23c1ccccc1)OCCOCCNCCOCCO4)OCCOCCNCCOCCO5 (centres undefined) | – | – | > 100 | > 100 | > 100 | TGI [5]: > 100 µM; TGI [6]: 28.9 µM; TGI [8]: > 100 µM; TGI [9]: > 100 µM |
| COC(=O)C1Cc2c(n(C)c3ccccc23)C(CCC(=O)O)N1Cc1ccccc1 (centres undefined) | – | – | > 100 | 93.2 | > 100 | TGI [5]: > 100 µM; TGI [8]: > 100 µM; TGI [9]: 72.5 µM |
| NC(=O)c1cc([N+](=O)[O-])c(Cl)c([N+](=O)[O-])c1Cl | 1.58 µM | 3.1 | – | – | – | – |
| O=C(CCCN1CCC(O)(c2ccc(Cl)cc2)CC1)c1ccc(F)cc1 | – | > 100 | – | – | – | – |
| O=S(=O)(O)c1cc(O)c(N=Nc2ccc(O)cc2O)c2ccccc12 | – | > 100 | – | – | – | TGI [2]: > 100 µM |
| O=[N+]([O-])C=C(c1ccc(Cl)cc1)c1ccc(Cl)cc1 | – | – | 32 | 28.5 | – | TGI [5]: 20.1 µM |
| COc1cccc(CC(C)=C(c2ccc(OCCN3CCCCC3)cc2)c2ccc(OCCN3CCCCC3)cc2)c1 | 1.83 µM | 3.75 | – | – | – | – |
| Cc1cc2c(cc1Cl)S/C(=C/C(=O)O)C(Nc1ccc3ncsc3c1)=NS2(=O)=O | 14.2 µM | > 49.4 | – | – | – | – |
| CC(N)(Cc1c[nH]c2cccc(F)c12)C(=O)O (centres undefined) | > 1000 µM | > 1000 | – | – | – | – |
| O=C(Nc1cccc(O)c1)c1ccc(NC2=C(Cl)C(=O)N(Cc3ccc(Cl)cc3Cl)C2=O)cc1 | 1.75 µM | 4.28 | – | – | – | – |
| CC1(C)CNc2cc(NC(=O)c3cccnc3NCc3ccncc3)ccc21 | 25.4 µM | > 100 | – | – | – | – |
| CC1/C(=N\O)CC(c2ccccc2)N(C)C1c1ccccc1 (centres undefined) | – | – | > 100 | > 100 | > 100 | TGI [5]: > 100 µM; TGI [8]: > 100 µM |
| O=C1C(c2ccc(Br)cc2)=[N+]([O-])c2ccccc21 | – | – | 25 | 12.2 | 22.3 | TGI [6]: 27.3 µM; TGI [9]: 31.3 µM |
| CCN(Cc1ccccc1)C1CCN(Cc2cc(Br)ccc2O)CC1 | 38.9 µM | > 100 | – | – | – | – |

| Compound | GI50 [1] | TGI [1] [µM] | TGI [3] [µM] | TGI [4] [µM] | TGI [7] [µM] | further results |
| --- | --- | --- | --- | --- | --- | --- |
| O=C(CC1OC(O)C(Cl)=C1Cl)c1cccnc1 (centres undefined) | – | – | – | > 56.5 | > 100 | TGI [5]: > 100 µM; TGI [6]: > 100 µM; TGI [8]: > 100 µM; TGI [9]: > 100 µM |
| CCc1ccc(CCC(=O)Nc2ncc(Cc3ccc(Cl)cc3)s2)o1 | 0.403 µM | > 100 | – | – | – | – |
| CN(c1ccc(C(=O)c2ccc(N(C)S(C)(=O)=O)cc2)cc1)S(C)(=O)=O | – | – | > 100 | 61.1 | > 100 | – |
| CC1=C(c2ccccc2)C(O)(c2ccccc2)C(C)C1=O (centres undefined) | 22.8 µM | > 100 | – | – | – | – |
| Cc1cccc(C2SCc3nc4ccccc4n32)c1 (centres undefined) | – | – | 75.9 | 28.3 | 96.8 | – |
| CCOC(=O)c1cc2c(cc1Cl)SC(=Nc1ccccc1)N(S(=O)(=O)c1ccc(Cl)cc1)S2(=O)=O | 12.2 µM | 28.6 | – | – | – | – |
| O=c1[nH]c2ccccc2nc1/C=C(\O)c1ccccc1O | – | – | > 100 | > 100 | > 100 | TGI [5]: > 100 µM; TGI [6]: > 100 µM |
| COc1ccc(-c2nc(-c3ccc(C)cc3)cn3ccnc23)cc1 | 4.44 µM | > 50 | – | – | – | – |
| CCOP(=O)(OCC)C1CCCOC1=O (centres undefined) | – | – | > 100 | > 100 | > 100 | TGI [5]: > 100 µM; TGI [6]: > 100 µM; TGI [8]: > 100 µM; TGI [9]: > 100 µM |
| COc1ccc(CN2c3ccccc3Sc3ccccc32)c(C(F)(F)F)c1 | 0.546 µM | > 100 | – | – | – | – |
| Nc1nc([Se])c2ncn(C3OC(CO)C(O)C3O)c2n1 (centres undefined) | 24.8 µM | > 100 | – | – | – | – |
| CN(C)C(=N/O)/C(=N\O)N(C)C | – | – | > 100 | > 100 | > 100 | TGI [5]: > 100 µM; TGI [6]: > 100 µM; TGI [8]: > 100 µM; TGI [9]: > 100 µM |
| Cc1cc2c(C)n(Cc3ccccc3Cl)nc2c(C(=O)O)c1C | – | – | > 100 | – | > 100 | TGI [5]: > 100 µM; TGI [6]: > 100 µM; TGI [9]: > 100 µM |
| Cc1ccccc1NC(=O)c1sc2nc(C)c(C(=O)/C=C/c3ccccc3)cc2c1N | 1.33 µM | 3.77 | – | – | – | – |
| OC(COC(c1ccccc1)(c1ccccc1)c1ccccc1)C(O)CC1SCCS1 (centres undefined) | – | 31.8 | – | – | – | TGI [2]: 60.1 µM |
| CC(C)(C)C1CCC2c3c([nH]c4ccccc34)C3C(=O)N(c4ccc(Cl)cc4)C(=O)C3C2C1 (centres undefined) | 37.4 µM and > 10 µM | > 100 | – | – | – | GI50 [2]: 94.9 µM and > 10 µM; TGI [2]: > 100 µM |
| CC1=C(C(=O)Nc2ccccc2)C(c2cccc3ccccc23)C(C(=O)Nc2ccccc2)=C(C)N1 | – | – | > 100 | 55.7 | 34.5 | TGI [5]: 40.9 µM; TGI [6]: 46.8 µM |
| COC(=O)C1=C(O)[C@H](C(=O)OC)C2(O)C(C(=O)OC)[C@H](c3ccc(OC(=O)C(C)c4ccc(CC(C)C)cc4)cc3)C[C@@H]1[C@@H]2C(=O)OC (some centres undefined) | 35 µM | > 50 | – | – | – | – |
| COC(=O)N/N=C(\C)c1c(O)cc(C)oc1=O | – | – | > 100 | – | – | TGI [8]: > 100 µM |
| CCC(C)[C@H](NC(=O)Nc1cc(C(F)(F)F)cc(C(F)(F)F)c1)C(=O)N[C@@H](Cc1cn(C)cn1)C(=O)OC (some centres undefined) | 0.715 µM | 1.77 | – | – | – | – |
